Experimental data taken from patent US20220257578A1, “COMPOSITION AND METHOD FOR TREATING CANDIDA AURIS INFECTION” (Appili Therapeutics Inc., priority 2019, published 2022).
Converted amounts (≈) assume the structure as drawn. Where two headings read alike, the source gives them in different places.

Assays:
C. auris = assay: In vitro susceptibility testing according to CLSI M27-A3 (MIC); type: cell-based, Candida auris; details: for MIC50 / MIC90 / MIC: Candidozyma auris; for MIC50: lowest concentration that inhibited 50% of the isolates tested; for MIC90: lowest concentration that inhibited 90% of the isolates tested
Description: In vitro susceptibility testing was performed according to the CLSI M27-A3 standard, the contents of which are herein incorporated by reference, against 10 isolates available from the U.S. Food and Drug Administration Center for Disease Control Antibiotic Resistance (FDA CDC AR) Isolate Bank and 13 clinical isolates that were received for testing by the Fungus Testing Laboratory at University of Texas Health Science Center at San Antonio (UTHSCSA).
In vitro activity of T-2307, fluconazole, and caspofungin against C. auris. […] MIC50 and MIC90 are lowest concentrations that inhibited 50% and 90%, respectively, of the isolates tested. GM MIC is geometric mean MIC.

C. auris (DI 17-46) = assay: Neutropenic mice with invasive candidiasis secondary to C. auris (survival arm and fungal burden arm); type: in vivo; details: for percent survival: day 21, control 0%; for kidney fungal burden (mean): control 7.09; for kidney fungal burden: control 8.04
Description: FIG. 1 depicts survival curves in mice inoculated intravenously with C. auris and treated with vehicle control, fluconazole 20 mg/kg PO QD, or caspofungin 10 mg/kg IP QD (A) or T-2307 at doses of 0.75 mg/kg, 1.5 mg/kg, or 3 mg/kg SC QD (B). Treatment started one day post-inoculation and continued for 7 days. Mice were then followed off therapy until day 21 post-inoculation (14 days after therapy stopped). Black square—vehicle control; white circle—fluconazole 20 mg/kg; black circle—caspofungin 10 mg/kg; inverted gray triangle T-2307 0.75 mg/kg; gray rectangle—T-2307 1.5 mg/kg; gray triangle—T-2307 3 mg/kg. N=10 mice per group.
(§1) FIG. 2 depicts graphs showing kidney (A) and brain (B) fungal burden (CFU/g) in mice with invasive candidiasis secondary to C. auris in the fungal burden arm. Colony-forming units were measured on day 8 post-inoculation after 7 days of therapy. N=10 mice in the vehicle control and treatment groups; N=5 mice in the 24-hour control group.
as §1, with “FIG. 3” for “FIG. 2”, “the survival” for “the fungal burden”, “group. Black circles represent mice that succumbed to infection prior to day 21; gray circles represent mice that survived to the survival endpoint.” for “group.”
Male Institute of Cancer Research (ICR) mice were rendered neutropenic with a single dose of 5-fluorouracil (5 mg/mouse) administered 24 hours prior to inoculation, and a clinical isolate of C. auris (DI 17-46) was used to infect mice via the lateral tail vein as previously described (Wiederhold et al. 2019. Antimicrob Agents Chemother. 63:e02233-18, the entire contents of which is herein incorporated by reference). Treatment with vehicle control, T-2307 (0.75, 1.5, or 3 mg/kg subcutaneously (SC) once daily), fluconazole (20 mg/kg per orally (PO) once daily), or caspofungin (10 mg/kg intraperitoneally (IP) once daily) began 1-day post-inoculation and continued for 7 days. In the fungal burden arm, mice were humanely euthanized on day 8 post-inoculation, and kidneys and brains were collected, weighed, and homogenized for analysis of colony-forming units (CFU/g). In the survival arm, mice were followed off therapy for 14 days, until day 21 post-inoculation. Fungal burden was also assessed in the survival arm on day 21 or on the day the mice succumbed to infection. Differences in survival were assessed by Kaplan-Meier analysis with the log-rank test. ANOVA with Tukey's post-test for multiple comparisons were used to assess for differences in fungal burden and geometric mean (GM) MIC values.

[1] = 50% inhibition endpoint, read-out: GM MIC (geometric mean MIC)
[2] = infecting clinical isolate of C. auris (DI 17-46), read-out: MIC against the infecting isolate

| SMILES | MIC50 (C. auris; 50% inhibition endpoint) [µg/mL] | MIC90 (C. auris; 50% inhibition endpoint) [µg/mL] | MIC (C. auris; [1]) [µg/mL] | MIC (C. auris; [2]) [µg/mL] | percent survival (C. auris (DI 17-46); caspofungin 10 mg/kg IP once daily for 7 days) [%] | brain fungal burden (C. auris (DI 17-46); fungal burden arm, day 8 post-inoculation, caspofungin 10 mg/kg IP, control 5.88) [log10 CFU/g] | kidney fungal burden (mean) (C. auris (DI 17-46); fungal burden arm, day 8 post-inoculation, caspofungin 10 mg/kg IP) [log10 CFU/g] | brain fungal burden (C. auris (DI 17-46); survival arm, day 21 or day mice succumbed, caspofungin 10 mg/kg IP, control 6.31) [log10 CFU/g] | kidney fungal burden (C. auris (DI 17-46); survival arm, day 21 or day mice succumbed, caspofungin 10 mg/kg IP) [log10 CFU/g] | improvement in survival vs control (C. auris (DI 17-46); fluconazole 20 mg/kg PO once daily) | MIC Range (C. auris; 50% inhibition endpoint, 23 C. auris isolates, 24 hours at 35° C.) [µg/mL] | MIC50 (C. auris; 100% inhibition endpoint) [µg/mL] | MIC90 (C. auris; 100% inhibition endpoint) [µg/mL] | MIC (C. auris; 100% inhibition endpoint, read-out: GM MIC (geometric mean MIC)) [µg/mL] | percent survival (C. auris (DI 17-46); T-2307 3 mg/kg SC once daily for 7 days) [%] | kidney fungal burden (mean) (C. auris (DI 17-46); fungal burden arm, day 8 post-inoculation, T-2307 3 mg/kg SC) [log10 CFU/g] | nature of activity (kidney fungal burden vs 24-hour group before start of therapy) (C. auris (DI 17-46); fungal burden arm, T-2307 3 mg/kg SC) | improvement in survival vs control (C. auris (DI 17-46); lower doses of T-2307 (0.75, 1.5 mg/kg SC once daily)) | brain fungal burden (C. auris (DI 17-46); survival arm, day 21 or day mice succumbed, T-2307 3 mg/kg SC, control 6.31) [log10 CFU/g] | kidney fungal burden (C. auris (DI 17-46); survival arm, day 21 or day mice succumbed, T-2307 3 mg/kg SC) [log10 CFU/g] |
| --- | --- | --- | --- | --- | --- | --- | --- | --- | --- | --- | --- | --- | --- | --- | --- | --- | --- | --- | --- | --- |
| CC[C@H](C)C[C@H](C)CCCCCCCCC(=O)N[C@H]1C[C@@H](O)[C@@H](NCCN)NC(=O)[C@@H]2[C@@H](O)CCN2C(=O)[C@H]([C@H](O)CCN)NC(=O)[C@H]([C@H](O)[C@@H](O)c2ccc(O)cc2)NC(=O)[C@@H]2C[C@@H](O)CN2C(=O)[C@H]([C@@H](C)O)NC1=O [Caspofungin, caspofungin] | 0.25 (≈ 0.229 µM) | 0.5 (≈ 0.457 µM) | 0.24 (≈ 0.22 µM) | 0.25 (≈ 0.229 µM) | 100 | 4.45 | 3.21 | 2.51 | 3.11 | – | – | – | – | – | – | – | – | – | – | – |
| OC(Cn1cncn1)(Cn1cncn1)c1ccc(F)cc1F [Fluconazole, fluconazole] | 4 (≈ 13.1 µM) | > 64 | 14.6 (≈ 47.7 µM) | > 64 | – | – | – | – | – | did not improve survival | – | – | – | – | – | – | – | – | – | – |
| N=C(N)c1ccc(OCCCC2CCN(CCCOc3ccc(C(=N)N)cc3)CC2)cc1 [T-2307, 4-{3-[4-(3-{4-[amino(imino)methyl]phenoxy}propyl)-1-piperidinyl]propoxy}benzamidine] | 0.015 (≈ 0.0343 µM) | 0.015 (≈ 0.0343 µM) | 0.011 (≈ 0.0251 µM) | < 0.008 | – | – | – | – | – | – | ≤0.008 to 0.015 | > 4 | > 4 | 2.19 (≈ 5 µM) | 70 | 5.06 | static in nature | did not improve survival | 4.16 | 6.28 |
